Measured values taken from patent US11672802B2, “Induction of immune tolerance by using methotrexate” (Genzyme Corporation, priority 2011, dated 2023).
“Also recorded” adds a separate entry of the source.

Key:
anti-mATG IgG = assay: Anti-mATG (anti-rabbit) IgG ELISA titers in mice treated with mATG; type: in vivo, C57BL/6 mice; set-up: reduction of anti-mATG antibody responses, area under the effect curves / reduction of anti-mATG IgG titers, area under the effect curves / reduction of anti-mATG IgG titers: concentration or dose not given beside the values
Description: The levels of anti-mATG IgG in mouse serum were analyzed by enzyme linked immunosorbent assay (ELISA). […] End-point titers were defined as the […] dilution that averages above an absorbance of 0.100 using Softmax software (Molecular Devices, Sunnyvale, Calif., USA).

[1] = Circulating mATG levels (mATG-specific IgG ELISA); type: in vivo, mice
Description: Mouse serum was determined by ELISA. […] Following blocking with 0.5% BSA (high purity), standard controls and serum samples were diluted as necessary and added in duplicate to the wells of the coated plates and incubated at 36-38° C. for 1 hour with gentle shaking. […] Final concentrations were interpolated off the standard curve. It was predetermined that the measurement of mATG-specific IgG by this method were only modestly affected by titers of anti-mATG IgG that were greater than 218,000.

[2] = test system: anti-allograft antibodies; assay: Serum alloantibody levels (binding to allogeneic fibroblasts); type: in vivo, mice; settings: day 21, allogeneic heart transplant
Description: Serum alloantibody levels were determined by incubating serum from cardiac transplanted or normal mice at 1:50 dilutions with an SV40 transformed C57BL/6 fibroblast line (SVB6) followed by detection of fibrobast bound antibodies (alloantibodies) using FITC rabbit anti-mouse IgG (Dako, Carpinteria, Calif.) and by flow cytometric analysis. Geometric mean fluorescent intensities of serum stained fibroblasts were divided by isotype control stained fibroblasts to normalize alloantibody levels between experiments.

[3] = test system: splenic B and T cell subsets; assay: Flow cytometry of splenic B and T cell subsets after rhGAA and methotrexate; type: in vivo, mice
Description: 20 mg/kg of Myozyme® (Genzyme Corporation) was given by tail vein injection once or for 2-6 weekly doses, commencing with the first methotrexate dose. Animals were sacrificed weekly or daily after initiation of treatment. Spleen, mesenteric, and inguinal lymph nodes were collected for flow cytometric analysis of T and B cell subsets and sera was collected for ELISA assays. Spleens were processed between glass slides and red blood cells (RBC) was lysed with lysing buffer purchased from BD Biosciences (catalog#555899) according to the manufacturer's instructions. Lymph nodes were processed between glass slides and washed with phosphate buffered saline (PBS) containing 2% fetal calf serum (FCS). Cells were resuspended in 200 μL of PBS containing 4% fetal bovine serum and 25 μg/mL of total mouse IgG and blocked for 30 minutes at 4° C. Approximately 3 million spleens cells and 1 million lymph node cells were stained with different antibody cocktails and analyzed with a high through put sampler (HTS) on a Becton Dickinson CANTOII flow cytometer. At least 100,000 cell events were acquired within the lymphocyte gate. Anti-mouse antibody cocktails consisted of PE-CD21/35 catalog #552957, FITC-catalog #553138, PE-CD138 catalog #553714, PE-PE-Cy7-CD4 catalog #552775, FITC-CD3e catalog #553062, APC-CD11b catalog #553312, PE-Cy7-IgM catalog #552867, APC-Cy7-CD8 catalog #557654, PE-CD273 (PD-L2) catalog #557796, APC-CD138 catalog #558626, PE-Cy7-CD11b catalog #552850, PE-CD93 (early B lineage) catalog #558039, APC-CD69 catalog #560689, Pe-Cy7-CD24 catalog #560536, FITC-CD1d catalog #553845, APC-CD5 catalog #550035, and Percp-Cy5-7AAD catalog #559925, all purchased from BD Pharmingen. FITC-FoxP3 intracellular staining kit was purchased from eBioscience. Pacific Blue (PB)-CD25 catalog #102022, PB-CD23 catalog #101616 and PB-CD86 catalog #105022 were purchased from BioLegend. Analysis of lymphocyte subsets was performed with FCS express version 3 software provided by De Novo Software. Percentages were generated with the batch processing option and absolute numbers were calculated according to the cell counts obtained. Spleen and lymph node cell counts were obtained with a Beckman Coulter Vi-cell XR cell viability analyzer according to the manufacturer's instructions.
C57BL/6 (Jackson Laboratories) or E4GAAKO (Charles River) mice 8-12 weeks old were given 5 mg/kg of methotrexate (Calbiochem catalog #454125) by intraperitoneal injection for 1 cycle (3 consecutive daily doses) commencing with treatment with 20 mg/kg of rhGAA. For the 1D11 studies, animals were treated with intraperitoneal injections of 5 mg/kg of either 1D11 or 13C4 (Genzyme Corporation) 3 time per week, every other day, commencing with rhGAA and methotrexate treatment. Animals were sacrificed on day 6 or 7 post rhGAA initiation depending on the mouse strain. Spleens were prepared in single cell suspension and loaded onto the RoboSep (STEMCELL technologies) instrument according to the manufacturer's instructions and subjected to B cell negative selection. Purified B cells were seeded at 500,000 cells per well in 96 well round bottom plates (Costar catalog #3799) and either incubated with no stimulation or with 10 μg/mL of LPS (Sigma catalog #L5014) for 48 hours at 37° C. All wells received Monensin (BD Bioscience catalog #554724) according to the manufacturer's instructions. Cells were allowed to incubate for at least 4 hours at 37° C. Samples were transferred to V bottom wells (USA Scientific catalog #651201) and spun at 1200 rpm for 5 minutes at 4° C. Cells were resuspended in 200 μL of PBS containing 4% fetal bovine serum and 25 μg/ml of total mouse IgG and blocked for 30 minutes at 4° C.

[4] = test system: cytokines (BAFF, TNF-alpha, MCP-1, IL-13, IL-6, IL-12); assay: Serum cytokine levels in alemtuzumab-treated mice; type: in vivo, huCD52 Tg mice
anti-alemtuzumab IgG = assay: Anti-alemtuzumab IgG ELISA titers in huCD52 Tg mice
Description: Alemtuzumab-related studies employed human CD52 (huCD52) transgenic (Tg) mice between 6-12 weeks of age that were obtained from Charles River Laboratories/Genzyme Corp. Mice were housed and maintained in accordance with the Guide for Care and Use of Laboratory Animals and under American Association for Accreditation of Laboratory Animals Care I accreditation and all animal protocols used in these studies were approved by the Institutional Animals Care and Use Committee.
Monoclonal antibody alemtuzumab was administered intravenously as either a single injection of 0.5 mg/kg or in either a three or five day cycle of 0.5 mg/kg/day.
Methotrexate (Calbiochem catalog #454125) was administered at 0.5, 1.0, 2.0 or 5 mg/kg by intraperitoneal injection for 1-3 cycles, where each cycle equals either three, six or seven consecutive days of injection depending upon the experiment.
Mice were bled 4-6 days following alemtuzumab treatment and specific anti-alemtuzumab IgG was measured by ELISA. Briefly, 96-well plates (Corning Inc., Corning, N.Y., USA) were coated overnight with 3 μg/ml of alemtuzumab in PBS (pH 7.2). Following blocking with 0.1% BSA in PBS, serial dilutions of serum were added in duplicate to alemtuzumab-coated plates and incubated at 37° C. for 1 h. The plates were washed, and horseradish peroxidase-conjugated goat anti-mouse IgG secondary antibody (Southern Biotechnology Associates, Birmingham, Ala., USA) was added and allowed to incubate for 1 h at 37° C. Following a final wash, TMB substrate (BioFx, Owings Mills, Md., USA) was added and allowed to develop for 15 min at room temperature. The reaction was stopped by the addition of 1 N HCl and absorbance values were read at 450/650 nm on an ELISA plate reader (Molecular Devices, Sunnyvale, Calif., USA). End-point titers were defined as the antilog of the logarithmically transformed sample dilution interpolated at an absorbance value of 0.2 using Excel software (Microsoft, Redmond, Wash., USA).

[5] = Myozyme and methotrexate vs Myozyme alone
[6] = methotrexate 1 mg/kg/day, three alemtuzumab treatment cycles

For `CN(Cc1cnc2nc(N)nc(N)c2n1)c1ccc(C(=O)N[C@@H](CCC(=O)O)C(=O)O)cc1` [methotrexate, Methotrexate], the “reduction of anti-mATG IgG titers” value (anti-mATG IgG; a single course of methotrexate) was over 95%, the “anti-mATG (anti-rabbit IgG) titer lower than with mATG alone” value (anti-mATG IgG; mATG and a single cycle of methotrexate vs mATG alone) was 100 fold and the “suppression of anti-mATG IgG responses, area under the effect curves” value (anti-mATG IgG; methotrexate 5 mg/kg ip six consecutive days, mATG 25 mg/kg x2, 3 days apart, through eight weeks) was 95%. The “reduction of anti-mATG IgG titers, area under the effect curves” value (“reduction of anti-mATG IgG titers, area” for short) (anti-mATG IgG; single course of methotrexate, mATG re-challenge after eight weeks rest) was 99%, the “anti-mATG IgG titer” value (anti-mATG IgG; single cycle of methotrexate around first of five monthly mATG treatments) was “approximately 50,000” and the “long-lived reduction in ADA” value (anti-mATG IgG; single cycle of methotrexate within first week of a protein therapy, over many months of dosing (summary statement)) was “greater than 95%”. The “reduction of anti-mATG IgG titers, area” value (anti-mATG IgG; single cycle regimen, five monthly mATG (FIG. 4C)) was 98%, the “reduction of anti-mATG IgG titers, area” value (anti-mATG IgG; three cycle regimen, five monthly mATG (FIG. 4C)) was 69% and the “reduction of anti-mATG IgG titers, area” value (anti-mATG IgG; three cycle regimen, mATG re-challenge after eight weeks rest) was 85%. For the same compound, the anti-mATG antibody titers (anti-mATG IgG; three cycles of methotrexate 5 mg/kg with first three monthly mATG treatments) was 816,000, the “reduction of anti-mATG antibody responses, area under the effect curves” value (anti-mATG IgG; three cycles of methotrexate, five monthly mATG (FIG. 4A)) was 79% and the “circulating mATG levels” value ([1]; heart transplant model, seven days after first mATG administration, mATG alone or with methotrexate) was “significantly higher”. The “levels of circulating mATG” value ([1]; months 3 and 5 of monthly mATG, alone or with single cycle methotrexate 5 mg/kg x3) was “measurable levels”, the “anti-allograft antibody (alloantibody) levels” value [2] was “significantly reduce; also recorded: significantly lower” and the “IL-10, TGFbeta and FoxP3 mean fluorescence intensity in multiple cell subsets” value [3, 5] was “statistically significant increases”. The “number of B10 B cells expressing IL-10” value [3, 5] was “increased”, the “activated B cell subsets (marginal zone, follicular, transitional 2 and 3)” value ([3]; following methotrexate treatment with rhGAA) was “significantly increased” and the “numbers of FoxP3+ B cells” value ([3]; methotrexate and Myozyme) was “increase”. The “absolute cell numbers of IL-10, TGF-beta and FoxP3 expressing transitional 2, transitional 3 and follicular B cells” value ([3]; methotrexate vs Myozyme alone) was “increased”, the “numbers of TGF-beta-expressing B10 B cells” value ([3]; methotrexate-tolerized animals) was “increased” and the “B10 regulatory B cell population” value ([3]; seven and eight days following Myozyme treatment) was “significant increases”. For the same compound, the “activated T helper, T cytotoxic and T regulatory cell populations” value ([3]; two cycles of Myozyme and methotrexate) was “largely unchanged”, the “levels of pro-inflammatory cytokines MCP-1, IL-13, IL-6 and IL-12” value ([4]; 24 hours after fifth alemtuzumab dose, methotrexate 5 mg/kg three days at first dose) was “decreased” and the TNF-alpha levels ([4]; methotrexate 2 mg/kg, one week after second cycle of alemtuzumab) was “statistically significant increase”. The BAFF levels ([4]; serum, 24 hours after 5th dose of alemtuzumab, with vs without methotrexate) was “no difference”, the “reduction of anti-alemtuzumab responses” value (anti-alemtuzumab IgG; methotrexate 1 mg/kg, single three-dose cycle, five monthly alemtuzumab 0.5 mg/kg) was 88% and the “mice in which titers were controlled” value (anti-alemtuzumab IgG; [6]) was 7 of the 8. The “reduction of anti-alemtuzumab titers” value (anti-alemtuzumab IgG; [6]) was 79%, the “reduction of ADA, area under the effect curves” value (anti-alemtuzumab IgG; methotrexate 2 mg/kg/day, three alemtuzumab treatment cycles) was 98% and the “reduction of anti-alemtuzumab IgG responses” value (anti-alemtuzumab IgG; methotrexate 5 mg/kg, single three-dose cycle, five monthly alemtuzumab 0.5 mg/kg) was 99%. The anti-alemtuzumab antibody titers (anti-alemtuzumab IgG; three daily doses 5 mg/kg/day methotrexate, 24 hours after fifth monthly alemtuzumab dose) was “reduced”.
